According to paper PMC8282797, “Strictly regulated agonist-dependent activation of AMPA-R is the key characteristic of TAK-653 for robust synaptic responses and cognitive improvement” (Scientific Reports, 2021):

Assays:
BDNF and Gadd45b mRNA = assay: AMPA-induced BDNF and Gadd45b mRNA after 14 days of dosing; assay type: in vivo, mouse; details: pre-administration 0.3 mg/kg, p.o. for 14 days
Method: Male ICR mice at 7 weeks old were treated with orally administered vehicle or TAK-653. For the repeated dose study, TAK-653 (0.3 mg/kg, p.o.) or vehicle was administered for 14 days. AMPA at designated doses was intravenously (i.v.) administered 1 h after oral administration. Three hours after i.v. administration of AMPA, right hippocampi were isolated from the mice by euthanasia and acutely frozen on dry ice. Total RNA from mouse hippocampus was extracted with RNeasy 96 kit (Qiagen, Hilden, Germany). Reverse transcription of total RNA was performed using the High-capacity cDNA Archive kit (Life Technologies, Carlsbad, CA). Real-time quantitative PCR was carried out using an ABI PRISM 7900HT sequence detection system (Life Technologies) using PCR reagents (Nippon Gene Co. Limited, Toyama, Japan). Primers used for BDNF analyses were as follows: BDNF forward primer, 5’-[…]-3’; BDNF reverse primer, 5’-[…]-3’; BDNF TaqMan probe, 5’-FAM- […]-TAMRA-3’. Primers used for Gadd45b analyses were as follows: Gadd45b forward primer, 5’-[…]-3’; Gadd45b reverse primer, 5’-GCGCCAGCCTCTGCAT-3’; Gadd45b TaqMan probe, 5’'-FAM-[…]-MGB-3’. […] Concentrations of GAPDH mRNA were used for internal controls and relative BDNF or Gadd45b mRNA/GAPDH mRNA levels were calculated.

poly-I:C mouse = assay: Social approach-avoidance test in poly-I:C mouse; assay type: in vivo; details: 0.3 mg/kg, p.o., 1 h prior to test
Method: Poly-I:C (5 mg/kg) dissolved in sterile pyrogen-free 0.9% NaCl (control) solution was administered to pregnant female C57BL/6J mice on gestation day 15 (GD15) via the intravenous route at the tail vein with a volume of 5 ml/kg.
The apparatus was a three-chamber gray acryl box (53 × 19 × 21.5 cm, outer chamber: 19.3 × 19 × 21.5 cm), and dividing walls were made from clear acryl plates with gates. In the two outer chambers, transparent acryl cylinders with small holes (cylinder: 8.2 cm φ × 20.5 cm, hole: 1.3 cm φ) were placed to avoid direct physical interaction between a target animal and a test animal. Target animals were C57BL/6 J mice of the same age as test animals and no previous contact with them. On the test day, TAK-653 (0.3 mg/kg, p.o.) or vehicle was administered 1 h before the testing session. Each test animal was introduced in the middle chamber of test apparatus for 3 min with the gates being closed by partitions. Then the partitions were removed gently for the test animal to explore all three chambers freely for 5 min. Sniffing index was calculated as the index of sociability using the following equation:
Sniffing index = (Sniffing time to cylinder containing target mouse (s) − Sniffing time to empty cylinder (s))/ (Total sniffing time (s)).

rats = assay: Evaluation of convulsion; assay type: in vivo, rat; details: 100 mg/kg, p.o., 4 h after dosing
Method: The data were extracted from the studies conducted in accordance with the Good Laboratory Practice Regulation. […] The dose levels in the first study and second study were set at "100, 15 and 5 mg/kg, p.o." and "50, 15 and 5 mg/kg, p.o.", respectively. The dosing suspensions were administered into the stomach via a catheter in the morning at the dose volume of 5 mL/kg. Cage side observations to confirm tonic or […] convulsions were conducted before and at 1, 2, 4, 8 and 24 h after dosing in the first study and before and at 1, 4 and 24 h after dosing in the second study.

CC1=CN2CCS(=O)(=O)N=C2C(c2ccc(OC3CCCCC3)cc2)=N1 [TAK-653, 9-[4-(Cyclohexyloxy)phenyl]-7-methyl-3,4-dihydropyrazino[2,1-c][1,2,4]thiadiazine 2,2-dioxide]
AMPA-induced BDNF and Gadd45b mRNA expression in hippocampus (BDNF and Gadd45b mRNA): did not affect | Sniffing index (poly-I:C mouse): significantly improved | Convulsions (rats): chronic and tonic convulsions in 1 animal
